The values that follow are results of earlier work, collected in EP3957364A1, “A BINDING MOLECULE SPECIFICALLY BINDING TO HUMAN CD4 FOR USE IN THE TREATMENT OF PULMONARY DISEASES” (Fraunhofer-Gesellschaft zur Förderung der angewandten …, priority 2020, dated 2022).

The data set addresses CD4 (Homo sapiens, UniProt P01730). The following applies: reported, no source named.

Take TbYICbEbVEDQKAcEE: the “inhibition of CD4 binding of gp120 and MAX.16H5 IgG1 (or 16H5.chimlgG4)” value is “inhibit CD4 binding of both gp120 and MAX.16H5 IgG1”.
